Laboratory results taken from US20140120232A1, “ACID TASTE/ACID SMELL-REDUCING AGENT” (T. HASEGAWA CO., LTD., priority 2011, published 2014).

Test: Sensory evaluation of mayonnaise containing the agent
Conditions: ten panels
Protocol: Sensory evaluation of each drink was carried out by ten panels. […] The piercing aroma characteristic to aldehydes is a characteristic aroma common to every aldehyde and refers to an irritant off-smell giving an image of deteriorated oils and fats, soap, metals, Houttuynia cordata, etc. The judgment of smell was performed by comparing the effects at different concentrations of the acid taste and/or acid smell-reducing agent, and a concentration giving the highest acid taste/acid smell quality was selected.
A mayonnaise base material (100 g) was prepared by mixing 12 g of edible vinegar, 75 g of vegetable oils and fats, and 13 g of an aqueous solution containing egg yolk and spices. To the resulting mixture was added (Z,Z)-4,7-tridecadienal as the acid taste and/or acid smell-reducing agent of the present invention in concentrations shown in the following Table 11 to give mayonnaise containing the agent, followed by sensory evaluation as in Example 1.

In the case of `CCCCC/C=C\C/C=C\CCC=O` [(Z,Z)-4,7-tridecadienal], the “A: number of panels, acid taste/acid smell extreme and cause irritation” value (0.005 ppt) is reported as 10, the “B: number of panels, acid taste/acid smell slightly strong and slightly cause irritation” value (0.005 ppt) is reported as 0 and the “C: number of panels, acid taste/acid smell slightly unpleasant” value (0.005 ppt) is reported as 0. The “Flavor judgment: number of panels who judged acid taste/acid smell quality the highest” value (0.005 ppt) was 0, the “N: number of panels, irritation of acid reduced to give a mild acid taste” value (0.005 ppt) was 0 and the “X: number of panels, acid taste reduced but piercing odor characteristic to aldehydes unpleasant” value (0.005 ppt) was 0. For the same molecule, the “A: number of panels, acid taste/acid smell extreme and cause irritation” value (0.02 ppt) was 8, the “B: number of panels, acid taste/acid smell slightly strong and slightly cause irritation” value (0.02 ppt) was 2 and the “C: number of panels, acid taste/acid smell slightly unpleasant” value (0.02 ppt) was 0. The “Flavor judgment: number of panels who judged acid taste/acid smell quality the highest” value (0.02 ppt) was 0, the “N: number of panels, irritation of acid reduced to give a mild acid taste” value (0.02 ppt) was 0 and the “X: number of panels, acid taste reduced but piercing odor characteristic to aldehydes unpleasant” value (0.02 ppt) was 0. The “A: number of panels, acid taste/acid smell extreme and cause irritation” value (0.1 ppt) was 7, the “B: number of panels, acid taste/acid smell slightly strong and slightly cause irritation” value (0.1 ppt) was 2 and the “C: number of panels, acid taste/acid smell slightly unpleasant” value (0.1 ppt) was 1. The “Flavor judgment: number of panels who judged acid taste/acid smell quality the highest” value (0.1 ppt) was 0, the “N: number of panels, irritation of acid reduced to give a mild acid taste” value (0.1 ppt) was 0 and the “X: number of panels, acid taste reduced but piercing odor characteristic to aldehydes unpleasant” value (0.1 ppt) was 0. For the same molecule, the “A: number of panels, acid taste/acid smell extreme and cause irritation” value (0.2 ppt) was 3, the “B: number of panels, acid taste/acid smell slightly strong and slightly cause irritation” value (0.2 ppt) was 4 and the “C: number of panels, acid taste/acid smell slightly unpleasant” value (0.2 ppt) was 3. The “Flavor judgment: number of panels who judged acid taste/acid smell quality the highest” value (0.2 ppt) was 0, the “N: number of panels, irritation of acid reduced to give a mild acid taste” value (0.2 ppt) was 0 and the “X: number of panels, acid taste reduced but piercing odor characteristic to aldehydes unpleasant” value (0.2 ppt) was 0. The “A: number of panels, acid taste/acid smell extreme and cause irritation” value (0.5 ppt) was 0, the “B: number of panels, acid taste/acid smell slightly strong and slightly cause irritation” value (0.5 ppt) was 2 and the “C: number of panels, acid taste/acid smell slightly unpleasant” value (0.5 ppt) was 3. For the same molecule, the “Flavor judgment: number of panels who judged acid taste/acid smell quality the highest” value (0.5 ppt) was 1, the “N: number of panels, irritation of acid reduced to give a mild acid taste” value (0.5 ppt) was 5 and the “X: number of panels, acid taste reduced but piercing odor characteristic to aldehydes unpleasant” value (0.5 ppt) was 0. For the same molecule, the “A: number of panels, acid taste/acid smell extreme and cause irritation” value (1 ppb) was 0, the “B: number of panels, acid taste/acid smell slightly strong and slightly cause irritation” value (1 ppb) was 0 and the “C: number of panels, acid taste/acid smell slightly unpleasant” value (1 ppb) was 2. The “Flavor judgment: number of panels who judged acid taste/acid smell quality the highest” value (1 ppb) was 0, the “N: number of panels, irritation of acid reduced to give a mild acid taste” value (1 ppb) was 4 and the “X: number of panels, acid taste reduced but piercing odor characteristic to aldehydes unpleasant” value (1 ppb) was 4. The “A: number of panels, acid taste/acid smell extreme and cause irritation” value (1 ppt) was 0, the “B: number of panels, acid taste/acid smell slightly strong and slightly cause irritation” value (1 ppt) was 2 and the “C: number of panels, acid taste/acid smell slightly unpleasant” value (1 ppt) was 2. For the same molecule, the “Flavor judgment: number of panels who judged acid taste/acid smell quality the highest” value (1 ppt) was 1, the “N: number of panels, irritation of acid reduced to give a mild acid taste” value (1 ppt) was 6 and the “X: number of panels, acid taste reduced but piercing odor characteristic to aldehydes unpleasant” value (1 ppt) was 0. For the same molecule, the “A: number of panels, acid taste/acid smell extreme and cause irritation” value (5 ppt) was 0, the “B: number of panels, acid taste/acid smell slightly strong and slightly cause irritation” value (5 ppt) was 0 and the “C: number of panels, acid taste/acid smell slightly unpleasant” value (5 ppt) was 2. For the same molecule, the “Flavor judgment: number of panels who judged acid taste/acid smell quality the highest” value (5 ppt) was 4, the “N: number of panels, irritation of acid reduced to give a mild acid taste” value (5 ppt) was 8 and the “X: number of panels, acid taste reduced but piercing odor characteristic to aldehydes unpleasant” value (5 ppt) was 0. The “A: number of panels, acid taste/acid smell extreme and cause irritation” value (10 ppb) was 0, the “B: number of panels, acid taste/acid smell slightly strong and slightly cause irritation” value (10 ppb) was 0 and the “C: number of panels, acid taste/acid smell slightly unpleasant” value (10 ppb) was 1. For the same molecule, the “Flavor judgment: number of panels who judged acid taste/acid smell quality the highest” value (10 ppb) was 0, the “N: number of panels, irritation of acid reduced to give a mild acid taste” value (10 ppb) was 2 and the “X: number of panels, acid taste reduced but piercing odor characteristic to aldehydes unpleasant” value (10 ppb) was 7. The “A: number of panels, acid taste/acid smell extreme and cause irritation” value (20 ppt) was 0, the “B: number of panels, acid taste/acid smell slightly strong and slightly cause irritation” value (20 ppt) was 0 and the “C: number of panels, acid taste/acid smell slightly unpleasant” value (20 ppt) was 3. The “Flavor judgment: number of panels who judged acid taste/acid smell quality the highest” value (20 ppt) was 4, the “N: number of panels, irritation of acid reduced to give a mild acid taste” value (20 ppt) was 7 and the “X: number of panels, acid taste reduced but piercing odor characteristic to aldehydes unpleasant” value (20 ppt) was 0. The “A: number of panels, acid taste/acid smell extreme and cause irritation” value (50 ppb) was 0, the “B: number of panels, acid taste/acid smell slightly strong and slightly cause irritation” value (50 ppb) was 0 and the “C: number of panels, acid taste/acid smell slightly unpleasant” value (50 ppb) was 1. The “Flavor judgment: number of panels who judged acid taste/acid smell quality the highest” value (50 ppb) was 0, the “N: number of panels, irritation of acid reduced to give a mild acid taste” value (50 ppb) was 1 and the “X: number of panels, acid taste reduced but piercing odor characteristic to aldehydes unpleasant” value (50 ppb) was 8. For the same molecule, the “A: number of panels, acid taste/acid smell extreme and cause irritation” value (100 ppt) was 0, the “B: number of panels, acid taste/acid smell slightly strong and slightly cause irritation” value (100 ppt) was 1 and the “C: number of panels, acid taste/acid smell slightly unpleasant” value (100 ppt) was 4. For the same molecule, the “Flavor judgment: number of panels who judged acid taste/acid smell quality the highest” value (100 ppt) was 0, the “N: number of panels, irritation of acid reduced to give a mild acid taste” value (100 ppt) was 4 and the “X: number of panels, acid taste reduced but piercing odor characteristic to aldehydes unpleasant” value (100 ppt) was 1. The “A: number of panels, acid taste/acid smell extreme and cause irritation” value (500 ppt) was 0, the “B: number of panels, acid taste/acid smell slightly strong and slightly cause irritation” value (500 ppt) was 0 and the “C: number of panels, acid taste/acid smell slightly unpleasant” value (500 ppt) was 4. The “Flavor judgment: number of panels who judged acid taste/acid smell quality the highest” value (500 ppt) was 0, the “N: number of panels, irritation of acid reduced to give a mild acid taste” value (500 ppt) was 4 and the “X: number of panels, acid taste reduced but piercing odor characteristic to aldehydes unpleasant” value (500 ppt) was 2.
